Reference: ChEMBL document CHEMBL4342507, “Targeting YAP Degradation by a Novel 1,2,4-Oxadiazole Derivative via Restoration of the Function of the Hippo Pathway” (ACS Med Chem Lett, 2020)
Activity calls are given as the source filed them. No cut-off for these calls is given here.

Assays:
[1] = molecular target: T1, Serine/threonine-protein kinase LATS1 (Homo sapiens) (UniProt O95835); assay: Activation of LATS1 in triple-negative human SUM159 cells transfected with YAP/TAZ-TEAD reporter plasmid containing 8xGTIIC binding site and cotransfected with pCMV-Luc assessed as suppression of YAP/TAZ luciferase activity measured after 12 hrs by dual luciferase reporter assay
T1 sequence (whole entry): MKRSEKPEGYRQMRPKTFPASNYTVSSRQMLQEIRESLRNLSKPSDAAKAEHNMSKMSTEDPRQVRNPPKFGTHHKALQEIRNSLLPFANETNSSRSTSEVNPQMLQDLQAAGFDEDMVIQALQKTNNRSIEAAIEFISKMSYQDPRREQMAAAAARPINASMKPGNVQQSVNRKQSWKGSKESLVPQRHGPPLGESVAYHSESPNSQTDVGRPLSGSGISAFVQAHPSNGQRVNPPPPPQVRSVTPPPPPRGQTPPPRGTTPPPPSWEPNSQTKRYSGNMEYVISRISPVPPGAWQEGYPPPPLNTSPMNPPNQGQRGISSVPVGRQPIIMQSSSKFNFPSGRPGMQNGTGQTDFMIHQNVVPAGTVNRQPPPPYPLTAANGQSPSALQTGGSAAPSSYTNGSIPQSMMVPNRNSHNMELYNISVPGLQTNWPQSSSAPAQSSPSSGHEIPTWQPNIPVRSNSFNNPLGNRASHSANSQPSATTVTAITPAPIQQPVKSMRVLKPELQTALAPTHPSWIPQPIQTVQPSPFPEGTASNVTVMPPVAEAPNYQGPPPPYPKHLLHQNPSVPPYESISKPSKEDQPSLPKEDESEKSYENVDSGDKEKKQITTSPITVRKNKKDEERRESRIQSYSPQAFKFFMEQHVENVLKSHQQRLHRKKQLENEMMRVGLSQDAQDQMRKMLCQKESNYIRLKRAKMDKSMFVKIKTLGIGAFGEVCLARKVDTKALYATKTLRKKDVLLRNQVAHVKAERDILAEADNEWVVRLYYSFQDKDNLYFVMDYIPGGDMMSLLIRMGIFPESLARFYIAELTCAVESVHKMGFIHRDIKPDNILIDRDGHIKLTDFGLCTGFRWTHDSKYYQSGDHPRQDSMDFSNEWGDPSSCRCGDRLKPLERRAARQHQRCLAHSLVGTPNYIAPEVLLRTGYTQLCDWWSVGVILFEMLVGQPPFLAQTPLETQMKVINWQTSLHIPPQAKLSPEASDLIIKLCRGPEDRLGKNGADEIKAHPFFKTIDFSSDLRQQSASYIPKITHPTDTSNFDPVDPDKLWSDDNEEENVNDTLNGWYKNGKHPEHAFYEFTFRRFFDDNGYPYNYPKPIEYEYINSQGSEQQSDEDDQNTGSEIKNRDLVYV

[2] = molecular target: T1, Serine/threonine-protein kinase LATS1 (Homo sapiens); assay: Activation of LATS1 in triple-negative human SUM159 cells assessed as induction of YAP degradation by measuring suppression of YAP protein expression at 0.25 to 1 uM measured after 12 hrs in presence of 10 uM proteosomal inhibitor, MG132 by Western blot analysis
MDA-MB-231 [3] = assay: Cytotoxicity against human MDA-MB-231 cells assessed as reduction in cell viability measured after 72 hrs by MTT assay; assay type: functional, cell-based
PC-9 [4] = assay: Cytotoxicity against human PC9 cells assessed as reduction in cell viability at 0.2 to 1.2 uM by MTT assay; assay type: functional, cell-based; conditions: TDE = time-dependent effect
[5] = molecular target: T1, Serine/threonine-protein kinase LATS1 (Homo sapiens); assay: Activation of LATS1 in human PC3 cells assessed as increase in YAP phosphorylation at Ser397 at 0.25 to 1.5 uM measured after 12 to 24 hrs by immunoblotting analysis; assay type: cell-based
[6] = molecular target: T1, Serine/threonine-protein kinase LATS1 (Homo sapiens); assay: Activation of LATS1 in human PC3 cells assessed as increase in YAP phosphorylation at Ser397 at 0.25 to 1.5 uM measured after 24 to 48 hrs by immunoblotting analysis; assay type: cell-based
[7] = molecular target: T1, Serine/threonine-protein kinase LATS1 (Homo sapiens); assay: Activation of LATS1 in human PC9 cells assessed as increase in YAP phosphorylation at Ser397 at 0.25 to 1.5 uM measured after 24 to 48 hrs by immunoblotting analysis; assay type: cell-based
PC-9 [8] = assay: Downregulation of TAZ protein expression in human PC9 cells at 0.25 to 1.5 uM measured after 12 to 24 hrs by immunoblotting analysis; assay type: functional, cell-based
[9] = molecular target: T1, Serine/threonine-protein kinase LATS1 (Homo sapiens); assay: Activation of LATS1 in human SUM159 cells assessed as increase in phosphorylation at Thr1079 residue measured after 12 hrs by Western blot analysis; assay type: cell-based
SUM-159-PT [10] = assay: Effect on MST1 expression in human SUM159 cells at 0.25 to 1.5 uM measured after 12 hrs by Western blot analysis; assay type: functional, cell-based
SUM-159-PT [11] = assay: Effect on MST2 expression in human SUM159 cells at 0.25 to 1.5 uM measured after 12 hrs by Western blot analysis; assay type: functional, cell-based
PC-3 [12] = assay: Effect on MST2 expression in human PC3 cells at 0.25 to 1.5 uM measured after 24 hrs by Western blot analysis; assay type: functional, cell-based
MDA-MB-231 [13] = assay: Antitumor activity against human MDA-MB-231 cells xenografted in athymic Nude-Foxn1nu BALB/c mouse assessed as tumor growth suppression at 200 mg/kg, po administered once daily via gavage for 40 days and measured twice a week during treatment period by caliper method relative to control; assay type: functional; conditions: MDA-MB-231, po, 960 h
[14] = Acute toxicity in athymic Nude-Foxn1nu BALB/c mouse xenografted with human MDA-MB-231 cells assessed as effect on serum ALT level at 200 mg/kg, po administered once daily via gavage for 14 days; assay type: organism-based; conditions: in vivo, 336 h
[15] = Acute toxicity in athymic Nude-Foxn1nu BALB/c mouse xenografted with human MDA-MB-231 cells assessed as effect on blood urea nitrogen level at 200 mg/kg, po administered once daily via gavage for 14 days; assay type: organism-based; conditions: in vivo, 336 h
[16] = Acute toxicity in athymic Nude-Foxn1nu BALB/c mouse xenografted with human MDA-MB-231 cells assessed as effect on serum total cholesterol level level at 200 mg/kg, po administered once daily via gavage for 14 days; assay type: organism-based; conditions: in vivo, 336 h
MDA-MB-231 [17] = assay: Cytostatic activity against human MDA-MB-231 cells assessed as cell viability at concentration of greater than IC50 measured up to 72 hrs by MTT assay; assay type: functional, cell-based
PC-3 [18] = assay: Cytostatic activity against human PC3 cells assessed as cell viability at concentration of greater than IC50 measured up to 72 hrs by MTT assay; assay type: functional, cell-based
PC-9 [19] = assay: Cytostatic activity against human PC9 cells assessed as cell viability at concentration of greater than IC50 measured up to 72 hrs by MTT assay; assay type: functional, cell-based
[20] = molecular target: T1, Serine/threonine-protein kinase LATS1 (Homo sapiens); assay: Activation of LATS1 in human MDA-MB-231 cells assessed as induction of YAP degradation by measuring suppression of YAP protein expression at 0.25 to 1.5 uM measured after 12 to 24 hrs by immunoblotting analysis; assay type: cell-based
MDA-MB-231 [21] = assay: Effect on MOB expression in human MDA-MB-231 cells at 0.25 to 1.5 uM measured after 24 hrs by Western blot analysis; assay type: functional, cell-based
PC-3 [22] = assay: Effect on MOB expression in human PC3 cells at 0.25 to 1.5 uM measured after 24 hrs by Western blot analysis; assay type: functional, cell-based

For `CC(=O)Nc1ccc(NC(=O)Nc2cccc(-c3nc(-c4ccc(NC(=O)c5cccnc5)cc4Cl)no3)c2)cc1C(F)(F)F`, the Activity [1] was “Dose-dependent effect”, the Activity [2] was “inactive” and the Activity (MDA-MB-231 [3]) was “Dose-dependent effect”. For the same compound, the IC50 (MDA-MB-231 [3]; MDA-MB-231, 72 h) was 400 to 800 nM, the Activity (PC-9 [4]) was “Tde” and the Activity [5] was “Active”. The Activity [6] was “inactive”, the Activity [7] was “inactive” and the inhibition (PC-9 [8]) was “Active”. For the same compound, the Activity [9] was “Dose-dependent effect”, the Activity (SUM-159-PT [10]) was “inactive” and the Activity (SUM-159-PT [11]) was “inactive”. For the same compound, the Activity (PC-3 [12]) was “inactive”, the inhibition in vivo at 200 mg/kg (MDA-MB-231 [13]) was 65% and the Activity [14] was “Non-Toxic”. For the same compound, the Activity [15] was “Non-Toxic”, the Activity [16] was “Non-Toxic” and the Activity (MDA-MB-231 [17]) was “Active”. The Activity (PC-3 [18]) was “Active”, the Activity (PC-9 [19]) was “Active” and the Activity [20] was “Active”. For the same compound, the Activity (MDA-MB-231 [21]) was “inactive” and the Activity (PC-3 [22]) was “inactive”.
